According to patent US20020055528A1, “Artemisinin analogs having antimalarial, antiproliferative, and antitumor activities and chemoselective methods of making the same” (priority 1999, published 2002):
Like-named read-outs stand apart in the source and are kept apart here.

Experiments:
[1] = system: UACC-257; experiment: NCI 60 cell line screen (SRB), Melanoma; format: cell-based; details: PG=0
[2] = system: HL-60(TB); experiment: NCI 60 cell line screen (SRB), Leukemia; format: cell-based; details: for Log10TGI: PG=0
[3] = system: 60 cell line panel; experiment: NCI 60 cell line screen (SRB), whole panel; format: cell-based; details: panel summary
Protocol: (§1) The screening assay is performed on 96-well microtitre plates. Relatively high initial inoculation densities are used, in order to permit measurement of “time-zero” values and to enhance the screen's ability to detect and provide some differentiation between antiproliferative and cytotoxic response parameters. […] The inoculated microtitre plates are pre-incubated for 24 hours at 37θC prior to drug additions. The five drug dilutions tested routinely range from 10^−4 to 10^−8 molar. Higher or lower concentration ranges may be selected on a nonroutine basis if appropriate solubility and/or prior biological information or other screening data so dictate. Duplicate wells are prepared for all concentrations, (concentration is often denoted by placing brackets around a number); “time-zero” and “no drug” controls are also provided for each test. The minimum amount of compound required for a one-time evaluation in the routine screen can be calculated from the knowledge that each test requires a total of approximately 40 ml (0.04 liter) of cell culture medium containing the highest desired drug concentration. Thus, the amount (grams) of sample required (assuming an upper test concentration limit of 10^−4 M) is: molecular weight of compound×[…]. After a 48 hour incubation (37θC) with the test compound, the cells are fixed in situ to the bottoms of the microtitre wells by addition of 50 ul of either 50% trichloroacetic acid (for adherent cell lines) or 80% trichloroacetic acid (for settled cell suspension lines), followed by incubation for 60 minutes at 4θC. The cellular protein in each well is assayed using a sulforhodamine B (SRB) stain procedure. Briefly, after discarding the supernatants, the microtitre plates are washed 5 times with deionized water and air-dried. One hundred microliters of SRB solution (0.4% w/v in 1% acetic acid) is added to each microtitre well and incubated for 10 minutes at room temperature. Unbound SRB is removed by washing 5 times with 1 % acetic acid. The plates are air-dried, the bound stain is solubilized with Tris buffer, and the optical densities read at 515 nm. SRB is a bright pink anionic dye which, in dilute acetic acid, binds electrostatically to the basic amino acids of TCA-fixed cells. Cryopreserved master stocks of all the lines are maintained, and cultures used for screening are replaced from the master stock after no more than twenty passages in the screening laboratory. The cell line panel consists of 60 lines, organized into nine, disease-related subpanels including leukemia, non-small-cell lung cancer, colon, CNS, melanoma, ovarian, renal, prostate and breast cancers.
(§2) The response parameters G150 and LC50 are interpolated values representing the concentrations at which the percentage growth (PG) is +50 and −50, respectively:
(§3) GI50 is the concentration for which the PG=+50. At this value the increase from time tzero, in the number or mass of cells in the test well is only 50% as much as the corresponding increase in the control well during this period of the experiment, see Table II. A drug effect of this intensity is interpreted as primary growth inhibition.
(§4) TGI is the concentration for which PG=0. At this value the number or mass of cells in the well at the end of the experiment equals the number or mass of cells in the well at time tzero, see Table III. A drug effect of this intensity is regarded as cytostasis.
(§5) LC50 is the concentration for which the PG=−50. At this value, the number or mass of cells in the test well at the end of the experiment is half that at time tzero, see Table IV. This is interpreted as cytotoxicity.

[4] = system: CAKI-1; experiment: NCI 60 cell line screen (SRB), Renal Cancer; format: cell-based; details: Table IV (LC50, PG=−50)
[5] = system: IGROVI; experiment: NCI 60 cell line screen (SRB), Ovarian Cancer; format: cell-based; details: for Log10TGI: PG=0
[6] = system: OVCAR-8; experiment: NCI 60 cell line screen (SRB), Ovarian Cancer; format: cell-based
[7] = system: 786-0; experiment: NCI 60 cell line screen (SRB), Renal Cancer; format: cell-based; details: for Log10TGI: PG=0
[8] = system: HT29; experiment: NCI 60 cell line screen (SRB), Colon Cancer; format: cell-based
[9] = system: NCI-H226; experiment: NCI 60 cell line screen (SRB), Non-Small Cell Lung Cancer; format: cell-based; details: for Log10TGI: PG=0
[10] = system: NCI-H522; experiment: as above; format: cell-based; details: for Log10TGI: PG=0
[11] = system: HCT-116; experiment: NCI 60 cell line screen (SRB), Colon Cancer; format: cell-based; details: PG=0
[12] = system: OVCAR-5; experiment: NCI 60 cell line screen (SRB), Ovarian Cancer; format: cell-based; details: for Log10TGI: PG=0
[13] = system: RPMI-8226; experiment: NCI 60 cell line screen (SRB), Leukemia; format: cell-based; details: for Log10TGI: PG=0
[14] = system: LOX IMVI; experiment: NCI 60 cell line screen (SRB), Melanoma; format: cell-based
[15] = system: KM12; experiment: NCI 60 cell line screen (SRB), Colon Cancer; format: cell-based; details: for Log10TGI: PG=0
[16] = system: UACC-62; experiment: NCI 60 cell line screen (SRB), Melanoma; format: cell-based; details: for Log10TGI: PG=0
[17] = system: MOLT-4; details: for Log10TGI: PG=0; for drug concentration for cytotoxicity (percentage growth −50): human, 48 h
Protocol: as §1, §2, §3, §4, §5

[18] = system: SK-MEL2; experiment: NCI 60 cell line screen (SRB), Melanoma; format: cell-based; details: PG=0
[19] = system: SNB-75; experiment: NCI 60 cell line screen (SRB), CNS Cancer; format: cell-based; details: PG=0
[20] = Table IV (LC50, PG=−50), MOLT−4

CC(=O)O[C@H]1C(=O)[C@@]2(C)[C@H]([C@H](OC(=O)c3ccccc3)[C@]3(O)C[C@H](OC(=O)[C@H](O)[C@@H](NC(=O)c4ccccc4)c4ccccc4)C(C)=C1C3(C)C)[C@]1(OC(C)=O)CO[C@@H]1C[C@@H]2O [Paclitaxel, paclitaxel, reference compound]
Log10TGI [1]: −4.52 log10M
Log10TGI [2]: −11.57 log10M
Log10GI50 ([2]; PG=+50): −11.57 log10M
Log10GI50 ([2]; Table IV (LC50, PG=−50)): >−4.53 log10M
Range of Log10GI50 (Table IV) ([3]; Table IV (LC50)): 4.06
Delta of Log10GI50 [3]: −10.15
Delta of Log10TGI [3]: −4.54
Range of Log10GI50 [3]: 8.00
Range of Log10TGI [3]: 7.20
Log10GI50 [4]: >−4.00 log10M
Log10TGI [5]: −4.19 log10M
Log10GI50 ([5]; PG=+50): −8.61 log10M
Log10GI50 ([5]; Table IV (LC50, PG=−50)): >−4.00 log10M
Log10GI50 ([6]; PG=+50): −10.75 log10M
Log10GI50 ([6]; Table IV (LC50, PG=−50)): >−4.00 log10M
Log10TGI [7]: >−4.00 log10M
Log10GI50 ([7]; PG=+50): −8.01 log10M
Log10GI50 ([7]; Table IV (LC50, PG=−50)): >−4.00 log10M
Log10GI50 ([8]; PG=+50): <-13.00 log10M
Log10GI50 ([8]; Table IV (LC50, PG=−50)): −4.39 log10M
Log10TGI [9]: −4.80 log10M
Log10GI50 ([9]; Table IV (LC50, PG=−50)): −4.10 log10M
Log10TGI [10]: −4.92 log10M
Log10GI50 ([10]; PG=+50): <−13.00 log10M
Log10GI50 ([10]; Table IV (LC50, PG=−50)): >−4.00 log10M
Log10TGI [11]: −4.82 log10M
Log10TGI [12]: −4.92 log10M
Log10GI50 ([12]; PG=+50): −9.38 log10M
Log10GI50 ([12]; Table IV (LC50, PG=−50)): >−4.00 log10M
Log10TGI [13]: <-13.00 log10M
Log10GI50 ([13]; PG=+50): <−13.00 log10M
Log10GI50 ([13]; Table IV (LC50, PG=−50)): >−4.00 log10M
Log10TGI ([14]; PG=0): −4.65 log10M
Log10GI50 ([14]; PG=+50): −11.80 log10M
Log10GI50 ([14]; Table IV (LC50, PG=−50)): −4.15 log10M
Log10TGI [15]: −4.36 log10M
Log10GI50 ([15]; PG=+50): −11.43 log10M
Log10GI50 ([15]; Table IV (LC50, PG=−50)): >−4.00 log10M
Log10TGI [16]: −4.71 log10M
Log10GI50 ([16]; PG=+50): −10.46 log10M
Log10GI50 ([16]; Table IV (LC50, PG=−50)): −4.19 log10M
Log10GI50 ([17]; MOLT-4, PG=+50): −11.07 log10M
Log10TGI ([17]; MOLT−4): −11.07 log10M
Log10GI50 [17, 20]: >−4.00 log10M
drug concentration for cytotoxicity (percentage growth −50) [17]: greater than 10^−4 M

C[C@@H]1CC[C@H]2[C@@H](C)C(=O)O[C@@H]3O[C@]4(C)CC[C@@H]1[C@]32OO4 [Artemisinin, artemisinin]
Log10TGI [1]: >−4.00 log10M
Log10TGI [2]: −4.00 log10M
Log10GI50 ([2]; PG=+50): −4.26 log10M
Log10GI50 ([2]; Table IV (LC50, PG=−50)): >−4.00 log10M
Delta of Log10GI50 (Table IV) ([3]; Table IV (LC50)): −4.00
Range of Log10GI50 (Table IV) ([3]; Table IV (LC50)): 0.00
Delta of Log10GI50 [3]: −4.07
Delta of Log10TGI [3]: −4.00
Range of Log10GI50 [3]: 0.73
Range of Log10TGI [3]: 0.06
Log10TGI [5]: >−4.00 log10M
Log10GI50 ([5]; PG=+50): −4.31 log10M
Log10GI50 ([5]; Table IV (LC50, PG=−50)): >−4.00 log10M
Log10TGI ([6]; PG=0): >−4.00 log10M
Log10GI50 ([6]; PG=+50): >−4.00 log10M
Log10GI50 ([6]; Table IV (LC50, PG=−50)): >−4.00 log10M
Log10TGI [7]: >−4.00 log10M
Log10GI50 ([7]; PG=+50): >−4.00 log10M
Log10GI50 ([7]; Table IV (LC50, PG=−50)): >−4.00 log10M
Log10TGI ([8]; PG=0): >−4.00 log10M
Log10GI50 ([8]; PG=+50): >−4.00 log10M
Log10GI50 ([8]; Table IV (LC50, PG=−50)): >−4.00 log10M
Log10TGI [9]: >−4.00 log10M
Log10GI50 ([9]; PG=+50): >−4.00 log10M
Log10GI50 ([9]; Table IV (LC50, PG=−50)): >−4.00 log10M
Log10TGI [18]: >−4.00 log10M
Log10TGI [10]: >−4.00 log10M
Log10GI50 ([10]; PG=+50): >−4.00 log10M
Log10GI50 ([10]; Table IV (LC50, PG=−50)): >−4.00 log10M
Log10TGI [11]: >−4.00 log10M
Log10TGI [12]: >−4.00 log10M
Log10GI50 ([12]; PG=+50): >−4.00 log10M
Log10GI50 ([12]; Table IV (LC50, PG=−50)): >−4.00 log10M
Log10TGI [13]: >−4.00 log10M
Log10GI50 ([13]; PG=+50): >−4.00 log10M
Log10GI50 ([13]; Table IV (LC50, PG=−50)): >−4.00 log10M
Log10TGI [19]: >−4.00 log10M
Log10TGI [15]: >−4.00 log10M
Log10GI50 ([15]; PG=+50): >−4.00 log10M
Log10GI50 ([15]; Table IV (LC50, PG=−50)): >−4.00 log10M
Log10TGI [16]: >−4.00 log10M
Log10GI50 ([16]; PG=+50): >−4.00 log10M
Log10GI50 ([16]; Table IV (LC50, PG=−50)): >−4.00 log10M
Log10GI50 ([17]; MOLT-4, PG=+50): −4.73 log10M
Log10TGI ([17]; MOLT−4): −4.00 log10M
Log10GI50 [17, 20]: >−4.00 log10M
drug concentration for cytotoxicity (percentage growth −50) [17]: greater than 10^−4 M
